The results in this text go back to patent US20160251341A1, “SUBSTITUTED TRIAZOLE COMPOUNDS AS SERINE PROTEASE INHIBITORS” (Verseon Corporation, priority 2015, published 2016).

This experiment concerns the target T1, Human thrombin (Homo sapiens, UniProt P00734).
T1 construct: purchased Haematologic Technologies Inc
The experiment can be described thus: Thrombin protease inhibition assay (chromogenic substrate S-2238). It counts as biochemical. The conditions noted are these: 3 nM human thrombin, 125 μM S-2238, 10 min pre-incubation, RT. On the procedure: The thrombin activity reported herein (e.g., Table A) was obtained as follows. Human thrombin was obtained from Haematologic Technologies Inc. The chromogenic substrate S-2238 was obtained from DiaPharma. Thrombin was assayed in buffer containing 0.05 M Tris (pH 7.4), 0.015 M NaCl and 0.01% PEG-8000. The final concentration of enzyme used was 3 nM thrombin. The final concentration of substrate used was 125 μM S-2238 for thrombin. All assays were performed in 96-well microtiter plates at room temperature (RT). The enzyme and inhibitor were pre-incubated for 10 minutes then substrate was added and read at 405 nm in a SpectraMax Plus Spectrophotometer (Molecular Devices). Inhibitor IC50 values were determined by adding test compound as ten point, three-fold serial dilutions in buffer solution, as known in the art. The plate was read at 10 minutes after substrate addition. The IC50 was calculated by plotting the percent (%) inhibition against compound concentration and fitting the data to a constrained four parameter sigmoidal curve, as known in the art.

pIC50: −log10 of the molar value. Some results are limits rather than exact numbers.

In the case of `CC(C)(C)OC(=O)N1CCCC1c1n[nH]c(NCc2ccc(Cl)s2)n1` (stereo not drawn) [Entry 69, tert-butyl 2-(5-[(5-chlorothiophen-2-yl)methyl]amino-1H-1,2,4-triazol-3-yl)pyrrolidine-1-carboxylate], the negative logarithm of the IC50 (pIC50) is no more than 4.00.

For `Nc1nc(C2CCCO2)n[nH]1` (stereo not drawn) [Entry 25, 3-(oxolan-2-yl)-1H-1,2,4-triazol-5-amine], the pIC50 was no more than 4.00.

Consider `COC1CCCCC1c1n[nH]c(N)n1` (stereo not drawn) [Entry 18, 3-(2-methoxycyclohexyl)-1H-1,2,4-triazol-5-amine], for which the pIC50 was no more than 4.00.

`O=C(c1cccc2c1OCCO2)n1nc(C2CCCO2)nc1NCc1ccc(Cl)s1` (stereo not drawn) [Entry 33, N-[(5-chlorothiophen-2-yl)methyl]-1-(2,3-dihydro-1,4-benzodioxine-5-carbonyl)-3-(oxolan-2-yl)-1H-1,2,4-triazol-5-amine] gave a pIC50 of no less than 7.00.

Take `COc1ccccc1C(=O)n1nc(C2CN(C(=O)OC(C)(C)C)C2)nc1NCc1ccc(Cl)s1` [Entry 71, tert-butyl 3-(5-[(5-chlorothiophen-2-yl)methyl]amino-1-(2-methoxybenzoyl)-1H-1,2,4-triazol-3-yl)azetidine-1-carboxylate]: the pIC50 is no less than 7.00.

With `O=C(c1ccsc1)n1nc(C2CCCO2)nc1NCc1ccc(Cl)s1` (stereo not drawn) [Entry 59, N-[(5-chlorothiophen-2-yl)methyl]-3-(oxolan-2-yl)-1-(thiophene-3-carbonyl)-1H-1,2,4-triazol-5-amine], the pIC50 was no less than 7.00.

For the compound `Cc1ccccc1C(=O)n1nc(C2CCOCC2)nc1NCc1ccc(Cl)s1` [Entry 50, N-[(5-chlorothiophen-2-yl)methyl]-1-(2-methylbenzoyl)-3-(oxan-4-yl)-1H-1,2,4-triazol-5-amine], the pIC50 was no less than 7.00.

The compound `O=C(c1cccc2c1OCCO2)n1nc(C2CCOCC2)nc1NCc1ccc(Cl)s1` [Entry 32, N-[(5-chlorothiophen-2-yl)methyl]-1-(2,3-dihydro-1,4-benzodioxine-5-carbonyl)-3-(oxan-4-yl)-1H-1,2,4-triazol-5-amine] gave a pIC50 of no less than 7.00.

For `COc1ccccc1C(=O)n1nc(C2CCN(S(=O)(=O)C3CCCCC3)CC2)nc1NCc1ccc(Cl)s1` [Entry 64, N-[(5-chlorothiophen-2-yl)methyl]-3-[1-(cyclohexanesulfonyl)piperidin-4-yl]-1-(2-methoxybenzoyl)-1H-1,2,4-triazol-5-amine], the pIC50 is no less than 7.00.

Regarding `O=C(c1cccc2c1OCCO2)n1nc(C2CNC2)nc1NCc1ccc(Cl)s1` [Entry 21, 3-(azetidin-3-yl)-N-[(5-chlorothiophen-2-yl)methyl]-1-(2,3-dihydro-1,4-benzodioxine-5-carbonyl)-1H-1,2,4-triazol-5-amine; trifluoroacetic acid], the pIC50 is no less than 7.00.

`COc1ccc(C(=O)n2nc(C3CCOCC3)nc2NCc2ccc(Cl)s2)c(OC)c1` [Entry 36, N-[(5-chlorothiophen-2-yl)methyl]-1-(2,4-dimethoxybenzoyl)-3-(oxan-4-yl)-1H-1,2,4-triazol-5-amine] showed a negative-log IC50 (pIC50) of no less than 7.00.

In turn, `COc1ccccc1C(=O)n1nc(C2CN(S(=O)(=O)N3CCCC3)C2)nc1NCc1ccc(Cl)s1` [Entry 49, N-[(5-chlorothiophen-2-yl)methyl]-1-(2-methoxybenzoyl)-3-[1-(pyrrolidine-1-sulfonyl)azetidin-3-yl]-1H-1,2,4-triazol-5-amine] had a pIC50 of no less than 7.00.

Consider `COc1ccccc1C(=O)n1nc(C2CCOCC2)nc1NCc1ccccc1` [Entry 65, N-benzyl-1-(2-methoxybenzoyl)-3-(oxan-4-yl)-1H-1,2,4-triazol-5-amine], for which the pIC50 was 5.00 to 6.00.

The compound `COc1ccccc1C(=O)n1nc(C2CCOC2)nc1NCc1ccc(Cl)s1` (stereo not drawn) [Entry 42, N-[(5-chlorothiophen-2-yl)methyl]-1-(2-methoxybenzoyl)-3-(oxolan-3-yl)-1H-1,2,4-triazol-5-amine] had a pIC50 of no less than 7.00.

In turn, `COc1ccc(C(=O)n2nc(C3CCOC3)nc2NCc2ccc(Cl)s2)c(OC)c1` (stereo not drawn) [Entry 38, N-[(5-chlorothiophen-2-yl)methyl]-1-(2,4-dimethoxybenzoyl)-3-(oxolan-3-yl)-1H-1,2,4-triazol-5-amine] gave a pIC50 of no less than 7.00.

In the case of `CC(C)(C)OC(=O)N1CCC(c2n[nH]c(NCc3ccc(Cl)s3)n2)CC1` [Entry 75, tert-butyl 4-(5-[(5-chlorothiophen-2-yl)methyl]amino-1H-1,2,4-triazol-3-yl)piperidine-1-carboxylate], the pIC50 is no more than 4.00.

Consider `CC(C)(C)OC(=O)N1CC(c2n[nH]c(N)n2)C1` [Entry 70, tert-butyl 3-(5-amino-1H-1,2,4-triazol-3-yl)azetidine-1-carboxylate], for which the pIC50 is no more than 4.00.

Compound `c1ccc(CNc2nc(C3CCOCC3)n[nH]2)cc1` [Entry 66, N-benzyl-3-(oxan-4-yl)-1H-1,2,4-triazol-5-amine] gave a negative logarithm of the IC50 (pIC50) of no more than 4.00.

With `COc1ccccc1C(=O)n1nc(C2CCN(C(N)=O)CC2)nc1NCc1ccc(Cl)s1` [Entry 31, 4-(5-[(5-chlorothiophen-2-yl)methyl]amino-1-(2-methoxybenzoyl)-1H-1,2,4-triazol-3-yl)piperidine-1-carboxamide], the negative logarithm of the IC50 (pIC50) was no less than 7.00.

As to `COc1ccccc1C(=O)n1nc(C2CN(S(=O)(=O)N3CCCCC3)C2)nc1NCc1ccc(Cl)s1` [Entry 45, N-[(5-chlorothiophen-2-yl)methyl]-1-(2-methoxybenzoyl)-3-[1-(piperidine-1-sulfonyl)azetidin-3-yl]-1H-1,2,4-triazol-5-amine], the pIC50 is no less than 7.00.

With `COc1ccccc1C(=O)n1nc(C2CCN(C(=O)N3CCCCC3)CC2)nc1NCc1ccc(Cl)s1` [Entry 44, N-[(5-chlorothiophen-2-yl)methyl]-1-(2-methoxybenzoyl)-3-[1-(piperidine-1-carbonyl)piperidin-4-yl]-1H-1,2,4-triazol-5-amine], the negative logarithm of the IC50 (pIC50) is no less than 7.00.

As to `O=C(c1ccsc1)n1nc(C2CCOCC2)nc1NCc1ccc(Cl)s1` [Entry 57, N-[(5-chlorothiophen-2-yl)methyl]-3-(oxan-4-yl)-1-(thiophene-3-carbonyl)-1H-1,2,4-triazol-5-amine], the negative logarithm of the IC50 (pIC50) is no less than 7.00.

Compound `OC1=C(c2n[nH]c(NCc3ccccc3)n2)CCCC1` [Entry 17, 2-[5-(benzylamino)-1H-1,2,4-triazol-3-yl]cyclohex-1-en-1-ol] had a negative-log IC50 (pIC50) of no more than 4.00.

The compound `COc1ccccc1C(=O)n1nc(C2CCN(S(C)(=O)=O)CC2)nc1NCc1ccc(Cl)s1` [Entry 55, N-[(5-chlorothiophen-2-yl)methyl]-3-(1-methanesulfonylpiperidin-4-yl)-1-(2-methoxybenzoyl)-1H-1,2,4-triazol-5-amine] gave a pIC50 of no less than 7.00.

The compound `COC1CCCCC1c1n[nH]c(NCc2ccc(Cl)s2)n1` (stereo not drawn) [Entry 56, N-[(5-chlorothiophen-2-yl)methyl]-3-(2-methoxycyclohexyl)-1H-1,2,4-triazol-5-amine] had a pIC50 of 5.00 to 6.00.

`O=C(c1cccc2c1OCCO2)n1nc(C2CCOC2)nc1NCc1ccc(Cl)s1` (stereo not drawn) [Entry 34, N-[(5-chlorothiophen-2-yl)methyl]-1-(2,3-dihydro-1,4-benzodioxine-5-carbonyl)-3-(oxolan-3-yl)-1H-1,2,4-triazol-5-amine] gave a negative logarithm of the IC50 (pIC50) of no less than 7.00.

In the case of `O=C(c1ccoc1)n1nc(C2CCOC2)nc1NCc1ccc(Cl)s1` (stereo not drawn) [Entry 53, N-[(5-chlorothiophen-2-yl)methyl]-1-(furan-3-carbonyl)-3-(oxolan-3-yl)-1H-1,2,4-triazol-5-amine], the pIC50 is no less than 7.00.

One may read the pIC50 as the negative decadic logarithm of the IC50, by convention in mol/L. A low value points to a large IC50.
